Results on three compounds are retold here after ChEMBL document CHEMBL5500371, “Arginine and tryptophan-rich dendritic antimicrobial peptides that disrupt membranes for bacterial infection in vivo” (Eur J Med Chem, 2024).

The source made the active and inactive calls. No cut-off for these calls is given here. Where a SMILES comes first, the peptide text is derived from it. Side-chain parts run from the residue outwards.

One may read the MIC as the lowest concentration that inhibits growth of the organism. As usually defined, the half-life is the time in which the quantity being followed falls by half.

Data set [1] has as its system Staphylococcus aureus. The data set can be described thus: Antibacterial activity against Staphylococcus aureus ATCC 25923 assessed as inhibition of bacterial growth incubated for 20 hrs in presence of NaCl by broth microdilution method (reference value: 16 microM). Format: functional. In general terms: Broth dilution looks for growth in wells or tubes with falling amounts of substance.

Data set [2] has as its system Staphylococcus aureus. As to the kind of experiment: Antibacterial activity against Staphylococcus aureus ATCC 25923 assessed as inhibition of bacterial growth incubated for 20 hrs in presence of KCl by broth microdilution method (reference value: 16 microM). Format: functional.
The subject of data set [3] is Staphylococcus aureus. The data set can be described thus: Antibacterial activity against Staphylococcus aureus ATCC 25923 assessed as inhibition of bacterial growth incubated for 20 hrs in presence of MgCl2 by broth microdilution method (reference value: 16 microM). Format: functional.
Data set [4] deals with Staphylococcus aureus. As to the kind of experiment: Antibacterial activity against Staphylococcus aureus ATCC 25923 assessed as inhibition of bacterial growth incubated for 20 hrs in presence of FeCl3 by broth microdilution method (reference value: 16 microM). It is filed as functional.
A short description of data set [5]: Therapeutic index, ratio of MHC10 for hemolytic activity in mouse erythrocytes preincubated with 10% mouse serum for 1 hr to MIC for Escherichia coli ATCC 25922 preincubated with 10% mouse serum for 1 hr. Format: toxicity, cell-based. The settings on record: mouse erythrocytes, read-out: TI.
The nature of data set [6]: Therapeutic index, ratio of MHC10 for hemolytic activity in mouse erythrocytes preincubated with 10% mouse serum for 6 hrs to MIC for Staphylococcus aureus ATCC 25923 preincubated with 10% mouse serum for 6 hrs. The conditions noted are these: mouse erythrocytes, read-out: TI. It is filed as toxicity, cell-based.
Data set [7] can be described thus: Hemolytic activity in mouse erythrocytes at 256 uM preincubated for 1 to 6 hr with 10% mouse serum and measured after 1 hr by absorbance based analysis. It is filed as toxicity, cell-based, Erythrocyte. The settings on record: time 1-7 hrs, read-out: Activity.
Data set [8] can be described thus: Stability in mouse serum assessed as half life at 10 mM measured upto 24 hrs by RP-HPLC analysis. Format: ADME, cell-free.
Data set [9] deals with Staphylococcus aureus. The data set can be described thus: Bactericidal activity against Staphylococcus aureus ATCC 25923 assessed as elimination of bacteria at 2 times MIC measured after 1.5 hrs by time kill assay. Format: functional.
Data set [10] deals with Escherichia coli. The data set can be described thus: Bactericidal activity against Escherichia coli ATCC 25922 assessed as elimination of bacteria at 2 times MIC measured within 2 hrs by time kill assay. It is filed as functional, organism-based.
Data set [11] has as its system Escherichia coli. The data set can be described thus: Antibiofilm activity against Escherichia coli ATCC 25922 assessed as inhibition of biofilm formation at 0.5 to 4 times MIC measured after 24 hrs by crystal violet staining based analysis. It is filed as functional, organism-based.
The subject of data set [12] is Staphylococcus aureus. The data set can be described thus: Antibiofilm activity against Staphylococcus aureus ATCC 25923 assessed as inhibition of biofilm formation at 0.5 to 4 times MIC measured after 24 hrs by crystal violet staining based analysis. Format: functional, organism-based.
In data set [13] the test system is Cell membrane. As to the kind of experiment: Induction of outer membrane permeabilization in Escherichia coli assessed as increase in fluorescence intensity at 0.5 to 4 times MIC measured for 12 mins by NPN dye based assay.
In data set [14] the test system is Cell membrane. The data set can be described thus: Induction of inner membrane permeabilization in Escherichia coli ML-35 ATCC 43837 at 0.5 to 4 times MIC measured every 5 mins over 135 mins by ONPG reagent based microplate reader analysis.
Data set [15] deals with Cell membrane. As to the kind of experiment: Induction of inner membrane permeabilization in Escherichia coli ML-35 ATCC 43837 at 0.5 to 4 times MIC by ONPG reagent based microplate reader analysis. The conditions noted are these: time 0-135 min, TDE = time-dependent effect.
Data set [16] has as its system Cell membrane. As to the kind of experiment: Induction of cell membrane damage in Escherichia coli assessed as PI uptake at 2 times MIC measured after 0.5 hrs by PI dye based flow cytometry analysis (reference value: 18.1%). It is filed as cell membranes. (In general: Flow cytometry measures light scatter and fluorescence of single cells or particles in a stream.)

Data set [17] deals with Cell membrane. As to the kind of experiment: Induction of cell membrane damage in Escherichia coli assessed as increase in PI uptake at 2 times MIC measured after 2 hrs by PI dye based flow cytometry analysis. It is filed as cell membranes.
Data set [18] has as its system Cell membrane. As to the kind of experiment: Induction of cell membrane damage in Staphylococcus aureus assessed as increase in PI uptake at 2 times MIC measured after 2 hrs by PI dye based flow cytometry analysis. Format: cell membranes.
In data set [19] the test system is Cell membrane. The data set can be described thus: Disruption of cell membrane morphology in Escherichia coli assessed as breakage of cell membrane at 2 times MIC measured after 0.5 to 2 hrs by SEM analysis. The settings on record: time 0.5-2 hrs. It is filed as cell membranes.
Data set [20] concerns Cell membrane. The data set can be described thus: Disruption of cell membrane morphology in Escherichia coli assessed as release of cellular contents at 2 times MIC measured after 0.5 to 2 hrs by SEM analysis. Format: cell membranes. The settings on record: time 0.5-2 hrs.
In data set [21] the test system is Cell membrane. The data set can be described thus: Disruption of cell membrane morphology in Staphylococcus aureus assessed as partial creasing in bacterial membrane at 2 times MIC measured after 0.5 to 2 hrs by SEM analysis. The settings on record: time 0.5-2 hrs. Format: cell membranes.
For data set [22], the system named is Escherichia coli. As to the kind of experiment: Resistant development in Escherichia coli assessed as increase in MIC at sub-MIC in presence of gentamicin measured after 20 passages. It is filed as functional, organism-based.
Data set [23] deals with Staphylococcus aureus. As to the kind of experiment: Resistant development in Staphylococcus aureus assessed as increase in MIC at sub-MIC in presence of rifampicin measured after 20 passages. Format: functional, organism-based.
Data set [24] deals with Staphylococcus aureus. As to the kind of experiment: Resistant development in Staphylococcus aureus assessed as increase in MIC at sub-MIC in presence of gentamicin measured after 20 passages. It is filed as functional, organism-based.
For data set [25], the system named is Escherichia coli. The data set can be described thus: Synergistic antibacterial activity against Escherichia coli ATCC 25922 assessed as fractional inhibitory concentration index at 0.25 to 4 times MIC incubated for 20 hrs in presence of polymyxin B by checkerboard assay. It is filed as functional.
In data set [26] the test system is Escherichia coli. The data set can be described thus: Synergistic antibacterial activity against gentamicin resistant Escherichia coli ATCC 25922 assessed as fractional inhibitory concentration index at 0.25 to 4 times MIC incubated for 20 hrs in presence of gentamicin by checkerboard assay. It is filed as functional.
In data set [27] the test system is Staphylococcus aureus. As to the kind of experiment: Synergistic antibacterial activity against Staphylococcus aureus ATCC 25923 assessed as fractional inhibitory concentration index at 0.25 to 4 times MIC incubated for 20 hrs in presence of polymyxin B by checkerboard assay. It is filed as functional.
For data set [28], the system named is Staphylococcus aureus. The data set can be described thus: Synergistic antibacterial activity against Staphylococcus aureus ATCC 25923 assessed as fractional inhibitory concentration index at 0.25 to 4 times MIC incubated for 20 hrs in presence of rifampicin by checkerboard assay. Format: functional.
Data set [29] is described as follows: Acute toxicity in male BALB/c mouse assessed as torpid movement at 80 to 130 mg/kg, ip administered as single dose and measured after 3 days. Format: organism-based. The settings on record: in vivo, 72 h, dose 80-130 mg/kg, time 3 day.
Data set [30] can be described thus: Acute toxicity in male BALB/c mouse assessed as lusterless fur at 80 to 130 mg/kg, ip administered as single dose and measured after 3 days. It is filed as organism-based. The conditions noted are these: in vivo, 72 h, dose 80-130 mg/kg, time 3 day.
Data set [31] can be described thus: Acute toxicity in male BALB/c mouse assessed as animal death at 80 mg/kg, ip administered as single dose and measured after 3 days. It is filed as organism-based. The conditions noted are these: in vivo, 72 h, time 3 day.
In data set [32] the test system is Escherichia coli. As to the kind of experiment: […] activity against Escherichia coli ATCC 25922 infected in ip dosed male BALB/c pulmonary infection model assessed as reduction in bacterial colonies administered at 3 and 12 hrs post infection and measured 24 hrs post infection. Format: functional, organism-based. The settings on record: dose 5-10 mg/kg, time 12-21 hrs.

Data set [33] deals with Escherichia coli. The data set can be described thus: […] activity against Escherichia coli ATCC 25922 infected in male BALB/c pulmonary infection model assessed as reduction in liver hemorrhage at 5 to 10 mg/kg, ip administered at 3 and 12 hrs post infection and measured 24 hrs post infection by H and E staining based analysis. Format: functional, organism-based. The settings on record: dose 5-10 mg/kg, time 12-21 hrs.

The test system of data set [34] is Staphylococcus aureus. The data set can be described thus: Synergistic antibacterial activity against rifampicin resistant Staphylococcus aureus ATCC 25923 assessed as fractional inhibitory concentration index at 0.25 to 4 times MIC incubated for 20 hrs in presence of rifampicin by checkerboard assay. Format: functional.

In the case of `N=C(N)NCCC[C@H](NC(=O)[C@@H](N)CCCNC(=N)N)C(=O)NCCCC[C@H](NC(=O)[C@H](CCCNC(=N)N)NC(=O)[C@@H](N)CCCNC(=N)N)C(=O)N[C@@H](Cc1c[nH]c2ccccc12)C(=O)N[C@@H](Cc1c[nH]c2ccccc12)C(=O)N[C@@H](Cc1c[nH]c2ccccc12)C(=O)N[C@@H](Cc1c[nH]c2ccccc12)C(N)=O` (H-RRK([Arg-Arg])WWWW-NH2), the MIC in the data set with Staphylococcus aureus [1] came to 16 µM; with Staphylococcus aureus [2] it was 8 µM; in the data set on Staphylococcus aureus [3], 8 µM; in the data set with Staphylococcus aureus [4], 8 µM. Besides, the selectivity ratio in data set [5] and in [6] was 1 in each case. The hemolysis at 1 h, 256 µM in data set [7] is less than 10%. The half-life at 10000 µM in data set [8] was determined as 7.38 h. In addition, the Activity with Staphylococcus aureus [9] is 100%; in the data set with Escherichia coli [11] it was “Dose-Dependent Effect”; in the data set with Staphylococcus aureus [12], “Dose-Dependent Effect”; with Cell membrane [13] it was “Dose-Dependent Effect”; in the data set on Cell membrane [14], “Dose-Dependent Effect”; in the data set with Cell membrane [15] it was “Tde”. For the same compound, the Activity in the data set with Cell membrane [16] was greater than 80%; in data set [29], “Toxic”; in data set [30], “Toxic”; in [31], “Non-Toxic”; in the data set on Escherichia coli [32] it was “Dose-Dependent Effect”. Besides, the result in the data set with Escherichia coli [10], in the data set on Cell membrane [19], with Cell membrane [20], in the data set with Cell membrane [21] and in the data set with Escherichia coli [33] was Active. Besides, the result with Cell membrane [17], in the data set with Cell membrane [18], in the data set on Escherichia coli [22], in the data set on Staphylococcus aureus [23] and with Staphylococcus aureus [24] was inactive. Besides, the “fractional inhibitory concentration index (FICI)” value in the data set on Escherichia coli [25] stood at 0.5; in the data set with Escherichia coli [26], 5; in the data set on Staphylococcus aureus [27] it was 0.313; in the data set on Staphylococcus aureus [28] it was 0.375.

Turning to POLYMYXIN B, the MIC with Staphylococcus aureus [1] was found to be 64 µM; with Staphylococcus aureus [2], 16 µM; with Staphylococcus aureus [3], 16 µM; in the data set with Staphylococcus aureus [4], 16 µM. The fractional inhibitory concentration index (FICI) was 0.312 in the data set on Escherichia coli [26] and 0.5 in the data set with Staphylococcus aureus [34]. In addition, the Activity entry with Escherichia coli [32] was “Dose-Dependent Effect”.

With `N=C(N)NCCC[C@H](NC(=O)[C@H](CCCNC(=N)N)NC(=O)[C@H](CCCNC(=N)N)NC(=O)[C@@H](N)CCCNC(=N)N)C(=O)N[C@@H](CCCCN)C(=O)N[C@@H](Cc1c[nH]c2ccccc12)C(=O)N[C@@H](Cc1c[nH]c2ccccc12)C(=O)N[C@@H](Cc1c[nH]c2ccccc12)C(=O)N[C@@H](Cc1c[nH]c2ccccc12)C(N)=O`, the selectivity ratio in data set [5] and in data set [6] was 0.5 each time. For the same compound, the hemolysis at 1 h, 256 µM in data set [7] is less than 10%. Besides, the half-life at 10000 µM in data set [8] amounted to 4.31 h. Further, the Activity with Staphylococcus aureus [9] was 100%; in the data set with Escherichia coli [11], “Dose-Dependent Effect”; in the data set on Staphylococcus aureus [12], “Dose-Dependent Effect”; with Cell membrane [13], “Dose-Dependent Effect”; in the data set on Cell membrane [14], “Dose-Dependent Effect”; in the data set with Cell membrane [15] it was “Tde”. Further, the Activity in the data set with Cell membrane [16] is greater than 80%; in [29] it was “Toxic”; in data set [30], “Toxic”; in data set [31] it was “Non-Toxic”. Moreover, the result with Escherichia coli [10], in the data set with Cell membrane [19], with Cell membrane [20], with Cell membrane [21] and in the data set with Escherichia coli [33] was Active. Further, the outcome with Cell membrane [17], in the data set on Cell membrane [18], in the data set on Escherichia coli [22], in the data set with Staphylococcus aureus [23] and in the data set on Staphylococcus aureus [24] was inactive. The “fractional inhibitory concentration index (FICI)” value in the data set on Escherichia coli [25] is 0.5; in the data set on Staphylococcus aureus [27], 0.375; with Staphylococcus aureus [28] it was 0.375; with Staphylococcus aureus [34], 0.5.
